We go through three molecules from patent US20120270943A1 (priority 2011, published 2012).

The subject of one data set is pituitary gland; testes. The settings on record: in vivo; cited from earlier work.
The next data set relates to humans. Conditions: cited from earlier work.
The next data set in a line: water solubility. It is filed as physicochemical.
Data set [1] in a line: administration of D-aspartic acid hydrochloride and/or ethyl ester hydrochloride. It is filed as in vivo. The settings on record: administration by ingestion, injection or nasal spray, 10 mg to 100 g per day. As for the experimental part:
The D-aspartic acid hydrochloride or D-aspartic acid ethyl ester hydrochloride are administered by ingestion of pills, capsules, powdered drink mixes, beverages, confectionaries, syrups, and/or chewable tablets, or by injection of an aqueous solution, or via a nasal spray.

As for `N[C@H](CC(=O)O)C(=O)O` [D-aspartic acid], in the data set on pituitary gland; testes, the “effect in the testes upon testosterone production” value is “direct stimulating effect”; the “release of Luteinizing Hormone (LH) and Growth Hormone (GH) from the pituitary gland” value was “stimulate the release”. In addition, the LH levels entry in the data set on humans (oral, almost four (4) grams a day, men) is “increased significantly”. For the same molecule, in the data set with humans (oral, almost four (4) grams a day, peak on day twelve (12), twenty-three (23) men), the “rise of testosterone, level greater than day zero” value was 42%. The “levels of testosterone after discontinuation” value in the data set on humans (three (3) days after discontinuation) is listed as “still significantly increased”.
Turning to `CCOC(=O)C[C@@H](N)C(=O)OCC.Cl` [D-aspartic acid diethyl ester hydrochloride], the “water solubility (in words)” value in the data set “water solubility” is listed as “high water solubility”. For the same molecule, in data set [1], the “LH and HGH levels” value is listed as “increase”; the libido and/or mood entry is recorded as “improves/increases”; the “strength, muscle mass, endurance and rate of recovery” value is recorded as “increases”; the testosterone entry was “increase”.
As for `Cl.N[C@H](CC(=O)O)C(=O)O` [D-aspartic acid hydrochloride], in data set [1], the “LH and HGH levels” value is listed as “increase”; the libido and/or mood entry is “improves/increases”; the “strength, muscle mass, endurance and rate of recovery” value was “increases”; the testosterone result is “increase”.
